Experimental data reported in PubChem BioAssay (NCI).
Where “and” joins values, the source holds several entries; their conditions need not be identical. Equal entries are not always repeated.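 Interpolation was linear, between the two tested concentrations surrounding the appropriate level; five concentrations were tested over 48 hours in 96-well plates. GI50 is the concentration that inhibits growth by half. TGI: total growth inhibition.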

How the values were obtained:
Assay in all cases: DTP human tumour cell line panel, 48 h
NCI-H522 lung = tested on: NCI-H522 lung
ACHN renal = tested on: ACHN renal
OVCAR-3 ovarian = tested on: OVCAR-3 ovarian
SN12C renal = tested on: SN12C renal
RPMI-8226 leukemia = tested on: RPMI-8226 leukemia
HT29 colon = tested on: HT29 colon
SR leukemia = tested on: SR leukemia
OVCAR-8 ovarian = tested on: OVCAR-8 ovarian
MALME-3M melanoma = tested on: MALME-3M melanoma
HCT-15 colon = tested on: HCT-15 colon

| Structure (SMILES) | TGI (NCI-H522 lung) | GI50 (ACHN renal) | TGI (ACHN renal) | GI50 (OVCAR-3 ovarian) | TGI (OVCAR-3 ovarian) | GI50 (SN12C renal) | TGI (SN12C renal) | GI50 (RPMI-8226 leukemia) | GI50 (HT29 colon) | TGI (SR leukemia) | TGI (OVCAR-8 ovarian) | GI50 (MALME-3M melanoma) | TGI (MALME-3M melanoma) | GI50 (HCT-15 colon) | TGI (HCT-15 colon) | GI50 (NCI-H522 lung) | TGI (RPMI-8226 leukemia) | TGI (HT29 colon) | GI50 (SR leukemia) | GI50 (OVCAR-8 ovarian) |
| --- | --- | --- | --- | --- | --- | --- | --- | --- | --- | --- | --- | --- | --- | --- | --- | --- | --- | --- | --- | --- |
| CCCCCCCCCC[C@@H](O)[C@@H]1CC[C@@H]([C@@H]2CC[C@@H]([C@@H](O)CCCCCCCCCC[C@H](O)CC3=CC(C)OC3=O)O2)O1 (some centres not stated) | 13.8 µM | 2.26 µM | 5.75 µM and 20.7 µM | 1.47 µM | 3.34 µM and 22.3 µM | 16 µM | > 100 µM | 7.14 µM | 26.4 µM | 6.32 µM | 8.06 µM and > 54.7 µM | 2.13 µM | 3.86 µM and 7.42 µM | 4.23 µM | > 100 µM | – | – | – | – | – |
| Cc1ccc(C(=O)c2sc3nc4c(cc3c2N)CCCC4)c(C)c1 | – | 0.872 µM | > 100 µM | 0.183 µM | > 31.9 µM | 0.841 µM | > 100 µM | 0.406 µM | 0.443 µM | > 73 µM | > 100 µM | 0.0754 µM | > 100 µM | 0.159 µM | > 100 µM | 0.126 µM | 6.97 µM | > 35 µM | 0.124 µM | 0.807 µM |
| CNCC/C=C1\c2cc3c(cc2-c2c1c1cc(OC)c(OC)cc1c(=O)n2C)OCO3 | 16.2 µM | 0.167 µM | 2.21 µM | 1.04 µM | 17.9 µM | 0.207 µM | 6.06 µM | 0.149 µM | 0.21 µM | – | 6.55 µM | 0.419 µM | 4.59 µM | 0.585 µM | 13 µM | 0.122 µM | – | > 100 µM | < 0.01 µM | 0.248 µM |
| CCCCCCCCOCC(O)CO (configuration not stated) | > 100 µM | – | > 100 µM | – | > 100 µM | – | > 100 µM | – | – | > 100 µM | > 100 µM | – | > 100 µM | – | > 100 µM | – | > 100 µM | > 100 µM | – | – |
| NCCCCCNc1noc(Cc2c[nH]c3cc(Br)ccc23)n1 | 12.6 µM | 9.02 µM | 21.7 µM | 1.4 µM | 3.39 µM | 3.54 µM | 16.9 µM | 2.88 µM | 1.08 µM | 14.1 µM | 39.4 µM | 2.59 µM | 22.7 µM | 0.834 µM | 17.9 µM | 0.748 µM | 25.2 µM | 10.3 µM | 0.406 µM | 3.74 µM |
| C=C1C(=O)OC2C1C(OC(=O)/C(C)=C/C)CC(O)(CCl)C1C(O)C=C(C)C21O (configuration not stated) | 3.29 µM | – | 18.2 µM | – | 27.7 µM | – | 29.4 µM | – | – | 29.2 µM | 37.2 µM | – | 8.9 µM | – | 14.4 µM | – | 30.6 µM | 31.5 µM | – | – |
| O=C(NCCc1ccccc1)Nc1ccc2cc3ccc(NC(=O)NCCc4ccccc4)cc3nc2c1 | 1.5 µM | 20.9 µM | > 100 µM | 1.04 µM | 2.34 µM | 0.42 µM | 1.6 µM | 2.24 µM | 1.39 µM | 16 µM | 2.7 µM | 0.59 µM | 1.97 µM | > 100 µM | > 100 µM | 0.326 µM | 6.72 µM | 3.56 µM | 0.392 µM | 0.807 µM |
| N#Cc1c(-c2ccccc2)cc(-c2ccc(N)cc2)[nH]c1=O | > 100 µM | – | > 100 µM | – | > 100 µM | – | > 100 µM | – | – | > 100 µM | > 100 µM | – | > 100 µM | – | > 100 µM | – | > 100 µM | > 100 µM | – | – |
| Cc1ccccc1NC(=O)/C=N/O | > 100 µM | – | > 100 µM | – | > 100 µM | – | > 100 µM | – | – | > 100 µM | > 100 µM | – | > 100 µM | – | > 100 µM | – | > 100 µM | > 100 µM | – | – |
| OB(O)c1ccccc1C#Cc1ccccc1B(O)O | 41.7 µM | – | > 100 µM | – | 68.6 µM | – | 68 µM | – | – | > 100 µM | > 100 µM | – | 44.2 µM | – | > 100 µM | – | 68.8 µM | > 100 µM | – | – |
| COc1cccc(-c2nn(-c3ccccc3)cc2-c2ccnc(NCCCNC(=O)c3cccc(C(F)(F)F)c3)c2)c1 | 12.2 µM | 4.08 µM | 18.3 µM | 4.52 µM | 19.7 µM | 6.06 µM | 38.5 µM | 2.64 µM | 3.61 µM | 8.02 µM | 20.1 µM | 2.66 µM | 8.22 µM | 3.4 µM | 15.6 µM | 2.58 µM | 11.5 µM | 13.6 µM | 2.1 µM | 4.67 µM |
| Cc1ccc(Nc2cc(Cl)c([N+](=O)[O-])cc2[N+](=O)[O-])cc1 | 2.15 µM | 4.73 µM | 16.2 µM | 3.33 µM | 7.85 µM | 4.1 µM | 14.6 µM | 2.92 µM | 3.04 µM | 18.1 µM | 13.9 µM | 5.72 µM | 14 µM | 4.12 µM | 16.5 µM | 0.805 µM | 9.45 µM | 8.07 µM | 0.927 µM | 3.37 µM |
| c1ccc(CN2CCc3[nH]c4ccccc4c3C2)cc1 | 42.4 µM | – | 99.8 µM | – | > 74.7 µM | – | > 78.7 µM | – | – | > 76.6 µM | > 77.4 µM | – | 35 µM | – | 62.6 µM | – | 69.3 µM | 36.4 µM | – | – |
